Results as given in US20070185128A1, “Compounds and compositions for treating obesity” (priority 2002, published 2007).

Test system: schedule fed male SPRD rat
Assay: Assay (I): efficacy on appetite, schedule-fed rat model, food intake (diet consumed)
Type: in vivo
Conditions: for Diet Consumed 1 hr (mean X of 8 rats): 1 hr after dosing; for Diet Consumed 2 hr (mean X of 8 rats): cumulative at 2 hr after dosing; for Diet Consumed 3 hr (mean X of 8 rats): cumulative at 3 hr after dosing
Description: FIG. 1: Effect on food intake in schedule fed (8 h-13 h) male SPRD rat model as described in assay 1. The rats are dosed ip at 08.00 h with vehicle, sibutramine (3 mg/kg) and (S,S)-6-(4-amino-butyl)-1-biphenyl-4-ylmethyl-3-naphthalen-2-ylmethyl-piperazine-2,5-dione (example 11) (1, 3 or 10 mg/kg). Rat chow and water is available from just post dosing, and food intake is measured every hour from dosing to 3 hours post dosing.
The bars indicate the cumulated food intake over time.
Assay (I) Experimental Protocol for Efficacy Testing on Appetite with MC4 Analogues, Using a Schedule—Fed Rat Model.
TAC:SPRD @mol rats or Wistar rats from M&B Breeding and Research Centre A/S, Denmark are used for the experiments. The rats have a bodyweight 200-250 g at the start of experiment. The rats arrive at least 10-14 days before start of experiment with a bodyweight of 180-200 g. Each dose of compound is tested in a group of 8 rats. A vehicle group of 8 rats is included in each set of testing.
When the animals arrive they are housed individually. After a habituating period of 4-7 days with free access to food and water, the schedule feeding is initiated. The rats are allowed to eat from 08 am to 01 pm each day. In the remaining period only access to water is allowed. They are kept on this feeding schedule for 8 days before start of experiment. In this period the animals are handled and dosed in the relevant way (ip, po, sc.) with saline at least 3 times. The experiment is conducted in the rat home cages. Immediately before dosing the rats are randomised to the different treatment groups (n=8) by bodyweight. They are dosed according to bodyweight at 08 am, with a 1 ml/kg solution either, ip, po or sc. The dosing time is recorded for each group. Following dosing the rats are returned to their home cages, where they now have access to food and water. The food consumption is recorded individually, each hour for 3 hours. At the end of the experimental session, the animals are euthanised.
The individual data are recorded in Microsoft excel sheets. Outliers are excluded after using the Grubbs statistical evaluation test for outliers and the result presented graphically by using the GraphPad Prism program.

Row | SMILES | Diet Consumed 1 hr (mean X of 8 rats) (1 mg/kg i.p.) [Grams] | Diet Consumed 2 hr (mean X of 8 rats) (1 mg/kg i.p.) [Grams] | Diet Consumed 3 hr (mean X of 8 rats) (1 mg/kg i.p.) [Grams] | Diet Consumed 1 hr (mean X of 8 rats) (3 mg/kg i.p.) [Grams] | Diet Consumed 2 hr (mean X of 8 rats) (3 mg/kg i.p.) [Grams] | Diet Consumed 3 hr (mean X of 8 rats) (3 mg/kg i.p.) [Grams] | Diet Consumed 1 hr (mean X of 8 rats) (10 mg/kg i.p.) [Grams] | Diet Consumed 2 hr (mean X of 8 rats) (10 mg/kg i.p.) [Grams] | Diet Consumed 3 hr (mean X of 8 rats) (10 mg/kg i.p.) [Grams]
1 | NCCCC[C@H]1C(=O)N[C@@H](Cc2ccc3ccccc3c2)C(=O)N1Cc1ccc(-c2ccccc2)cc1 [Example 23, (S,S)-6-(4-Amino-butyl)-1-biphenyl-4-ylmethyl-3-naphthalen-2-ylmethyl-piperazine-2,5-dione] | 2.4 | 6.3 | 8.4 | 3.4 | 7.1 | 8.5 | 2.7 | 5.4 | 6.3
2 | CC(C)CC(N(C)C)C1(c2ccc(Cl)cc2)CCC1 (stereo not drawn) [Sibutramine, reference compound] |  |  |  | 3.5 | 7.0 | 9.4 |  |  | 
